# According to ChEMBL document CHEMBL3580594, “Synthesis and biological evaluation of 4-substituted fluoronucleoside analogs for the treatment of hepatitis B virus infection” (J Med Chem, 2015):
# Key:
# Hepatitis B virus [1] = assay: Antiviral activity against Hepatitis B virus in HepG2.2.15 cells assessed as inhibition of extracellular viral DNA replication at 0.2 uM after 3 days by real-time FQ-PCR analysis; format: functional; details: HepG2 2.2.15, 72 h
# Duck hepatitis B virus [2] = assay: Antiviral activity against duck Hepatitis B virus infected in duck assessed as inhibition of viral DNA replication in liver at 0.04 mg/kg/day, po measured after 3 days of treatment withdrawal; format: functional; details: 72 h
# Hepatitis B virus [3] = assay: Antiviral activity against Hepatitis B virus in HepG2.2.15 cells assessed as inhibition of extracellular viral DNA replication at 0.2 uM after 9 days by real-time FQ-PCR analysis; format: functional; details: HepG2 2.2.15, 216 h
# Duck hepatitis B virus [4] = assay: Antiviral activity against duck Hepatitis B virus infected in po dosed duck assessed as inhibition of viral DNA replication in liver; format: functional, organism-based
# Duck hepatitis B virus [5] = assay: Antiviral activity against duck Hepatitis B virus infected in duck assessed as inhibition of viral DNA replication in liver at 1 mg/kg/day, po measured after 3 days of treatment withdrawal; format: functional; details: 72 h
# Hepatitis B virus [6] = assay: Antiviral activity against Hepatitis B virus in HepG2.2.15 cells assessed as inhibition of intracellular viral DNA replication at 5 uM after 3 days by real-time FQ-PCR analysis; format: functional; details: HepG2 2.2.15, 72 h
# Hepatitis B virus [7] = assay: Antiviral activity against Hepatitis B virus in HepG2.2.15 cells assessed as inhibition of intracellular viral DNA replication at 1 uM after 9 days by real-time FQ-PCR analysis; format: functional; details: HepG2 2.2.15, 216 h
# Hepatitis B virus [8] = assay: Antiviral activity against Hepatitis B virus in HepG2.2.15 cells assessed as inhibition of intracellular viral DNA replication at 0.2 uM after 6 days by real-time FQ-PCR analysis; format: functional; details: HepG2 2.2.15, 144 h
# Hepatitis B virus [9] = assay: Antiviral activity against Hepatitis B virus in HepG2.2.15 cells assessed as inhibition of extracellular viral DNA replication at 1 uM after 9 days by real-time FQ-PCR analysis; format: functional; details: HepG2 2.2.15, 216 h
# Duck hepatitis B virus [10] = assay: Antiviral activity against duck Hepatitis B virus infected in duck assessed as inhibition of viral DNA replication in liver at 1 mg/kg/day, po treatment initiated at day 5 after infection relative to control; format: functional; details: 120 h
# Duck hepatitis B virus [11] = assay: Antiviral activity against duck Hepatitis B virus infected in duck assessed as inhibition of viral DNA replication in serum at 0.04 mg/kg/day, po measured after 3 days of treatment withdrawal; format: functional; details: 72 h
# Duck hepatitis B virus [12] = assay: Antiviral activity against duck Hepatitis B virus infected in duck assessed as inhibition of viral DNA replication in liver at 1 mg/kg/day, po treatment initiated at day 10 after infection relative to control; format: functional; details: 240 h
# Hepatitis B virus [13] = assay: Antiviral activity against Hepatitis B virus in HepG2.2.15 cells assessed as inhibition of intracellular viral DNA replication at 0.2 uM after 9 days by real-time FQ-PCR analysis; format: functional; details: HepG2 2.2.15, 216 h
# Duck hepatitis B virus [14] = assay: Antiviral activity against duck Hepatitis B virus infected in duck assessed as inhibition of viral DNA replication in liver at 0.2 mg/kg/day, po treatment initiated at day 5 after infection relative to control; format: functional; details: 120 h
# Hepatitis B virus [15] = assay: Antiviral activity against Hepatitis B virus in HepG2.2.15 cells assessed as inhibition of extracellular viral DNA replication at 0.2 uM after 6 days by real-time FQ-PCR analysis; format: functional; details: HepG2 2.2.15, 144 h
# Mus musculus [16] = assay: Acute toxicity in KM mouse assessed as adverse effect at 200 mg/kg, iv suspended in normal saline; format: organism-based; details: in vivo
# Mus musculus [17] = assay: Toxicity in KM mouse assessed as micronucleus frequency in bone marrow polychromatic erythrocyte at 10 mg/kg, po single dose after 48 hrs (reference value: 1.20 +/- 0.45 %); format: organism-based; details: in vivo
# Rattus norvegicus = species on record: Rattus norvegicus; assay: Drug metabolism in rat urine sample assessed as 1-((2R,3S,4R,5R)-5-azido-3-fluoro-4-hydroxy-5-(hydroxymethyl)tetrahydrofuran-2-yl)-4-(2,3-dihydroxycyclopropylamino)pyrimidin-2(1H)-one formation by LC-MS/MS analysis; format: ADME, organism-based; details: in vivo
# [18] = Cytotoxicity against human HepG2.2.15 cells by MTT assay; format: cell-based, HepG2 2.2.15
# Duck hepatitis B virus [19] = assay: Antiviral activity against duck Hepatitis B virus infected in duck assessed as inhibition of viral DNA replication in serum at 0.04 to 20 mg/kg, po; format: functional, organism-based; details: TDE = time-dependent effect
# Duck hepatitis B virus [20] = assay: Antiviral activity against duck Hepatitis B virus infected in duck assessed as inhibition of viral DNA replication in serum at 1 mg/kg/day, po treatment initiated at day 5 after infection relative to control; format: functional; details: 120 h
# Duck hepatitis B virus [21] = assay: Antiviral activity against duck Hepatitis B virus infected in duck assessed as inhibition of viral DNA replication in serum at 0.2 mg/kg/day, po measured after 3 days of treatment withdrawal; format: functional; details: 72 h
# Duck hepatitis B virus [22] = assay: Antiviral activity against duck Hepatitis B virus infected in duck assessed as inhibition of viral DNA replication in serum at 0.04 mg/kg/day, po treatment initiated at day 10 after infection relative to control; format: functional; details: 240 h
# Hepatitis B virus [23] = assay: Antiviral activity against Hepatitis B virus in HepG2.2.15 cells assessed as inhibition of extracellular viral DNA replication at 1 uM after 3 days by real-time FQ-PCR analysis; format: functional; details: HepG2 2.2.15, 72 h
# Mus musculus [24] = assay: Toxicity in KM mouse assessed as micronucleus frequency in bone marrow polychromatic erythrocyte at 80 mg/kg, po single dose after 48 hrs (reference value: 2.20 +/- 0.84 %); format: organism-based; details: in vivo
# Mus musculus [25] = assay: Toxicity in KM mouse assessed as micronucleus frequency in bone marrow polychromatic erythrocyte at 20 mg/kg, po single dose after 48 hrs (reference value: 1.20 +/- 0.45 %); format: organism-based; details: in vivo
# Mus musculus [26] = assay: Toxicity in KM mouse assessed as micronucleus frequency in bone marrow polychromatic erythrocyte at 20 mg/kg, po single dose after 48 hrs (reference value: 2.20 +/- 0.84 %); format: organism-based; details: in vivo
# Duck hepatitis B virus [27] = assay: Antiviral activity against duck Hepatitis B virus infected in duck assessed as inhibition of viral DNA replication in liver at 0.2 mg/kg/day, po treatment initiated at day 10 after infection relative to control; format: functional; details: 240 h
# Mus musculus [28] = assay: Toxicity in KM mouse assessed as peripheral WBC number in blood per liter at 10 mg/kg/day, po 5 doses (reference value: 7.47 +/- 33.77 /L x 10^-9 cells); format: organism-based; details: in vivo
# Duck hepatitis B virus [29] = assay: Antiviral activity against duck Hepatitis B virus infected in duck assessed as inhibition of viral DNA replication in liver at 0.04 to 20 mg/kg, po; format: functional, organism-based; details: TDE = time-dependent effect
# Hepatitis B virus [30] = assay: Antiviral activity against Hepatitis B virus in HepG2.2.15 cells assessed as inhibition of intracellular viral DNA replication at 5 uM after 9 days by real-time FQ-PCR analysis; format: functional; details: HepG2 2.2.15, 216 h
# Hepatitis B virus [31] = assay: Antiviral activity against Hepatitis B virus in HepG2.2.15 cells assessed as inhibition of extracellular viral DNA replication at 1 uM after 6 days by real-time FQ-PCR analysis; format: functional; details: HepG2 2.2.15, 144 h
# Hepatitis B virus [32] = assay: Antiviral activity against Hepatitis B virus in HepG2.2.15 cells assessed as inhibition of intracellular viral DNA replication at 1 uM after 3 days by real-time FQ-PCR analysis; format: functional; details: HepG2 2.2.15, 72 h
# Mus musculus [33] = assay: Acute toxicity in KM mouse assessed as weight loss at 3 g/kg, iv suspended in 0.5% CMC/Na solution after 14 days; format: organism-based; details: in vivo, 3000 mg/kg, 336 h
structure (smiles),measurement,setting,value
[N-]=[N+]=N[C@]1(CO)O[C@@H](n2ccc(NC3CC3)nc2=O)[C@@H](F)[C@@H]1O,inhibition at 0.2 µM,Hepatitis B virus [1],33.8%
same,inhibition in vivo at 0.04 mg/kg/day,Duck hepatitis B virus [2],58.8%
same,inhibition at 0.2 µM,Hepatitis B virus [3],52.1%
same,inhibition,Duck hepatitis B virus [4],Dose-dependent effect
same,inhibition in vivo at 1 mg/kg/day,Duck hepatitis B virus [5],76.1%
same,inhibition at 5 µM,Hepatitis B virus [6],46.2%
same,inhibition at 1 µM,Hepatitis B virus [7],56.9%
same,inhibition at 0.2 µM,Hepatitis B virus [8],31.7%
same,inhibition at 1 µM,Hepatitis B virus [9],76.2%
same,inhibition in vivo at 1 mg/kg/day,Duck hepatitis B virus [10],64.1%
same,inhibition in vivo at 0.04 mg/kg/day,Duck hepatitis B virus [11],47.1%
same,inhibition in vivo at 1 mg/kg/day,Duck hepatitis B virus [12],82.1%
same,inhibition at 0.2 µM,Hepatitis B virus [13],46.5%
same,inhibition in vivo at 0.2 mg/kg/day,Duck hepatitis B virus [14],52.7%
same,inhibition at 0.2 µM,Hepatitis B virus [15],52%
same,Activity,Mus musculus [16],Non-toxic
same,Activity,Mus musculus [17],1.4%
same,Drug metabolism,Rattus norvegicus,metabolite_detected
same,CC50,[18],391 µM
same,inhibition,Duck hepatitis B virus [19],tde
same,inhibition in vivo at 1 mg/kg/day,Duck hepatitis B virus [20],71.9%
same,inhibition in vivo at 0.2 mg/kg/day,Duck hepatitis B virus [21],66%
same,inhibition in vivo at 0.04 mg/kg/day,Duck hepatitis B virus [22],43.4%
same,inhibition at 1 µM,Hepatitis B virus [23],54%
same,Activity,Mus musculus [24],1.8%
same,Activity,Mus musculus [25],2.8%
same,Activity,Mus musculus [26],1.6%
same,inhibition in vivo at 0.2 mg/kg/day,Duck hepatitis B virus [27],68.7%
same,Activity,Mus musculus [28],8.09 ×10⁹ /L
same,inhibition,Duck hepatitis B virus [29],tde
same,inhibition at 5 µM,Hepatitis B virus [30],68.2%
same,inhibition at 1 µM,Hepatitis B virus [31],76.7%
same,inhibition at 1 µM,Hepatitis B virus [32],39.2%
same,Activity,Mus musculus [33],Non-toxic
